Measurements reported in US7727988B2, “Azabicyclo[3.1.0]hex-3-yl}alkyl)pyrimidinedione” (Glaxo Group Limited, priority 2006, dated 2010).

target: T1, dopamine D3 receptor (Homo sapiens, UniProt P35462); experiment: GTPS scintillation proximity assay (GTPS-SPA), CHO_D3 membranes, antagonist format; format: biochemical; conditions: not given
T1 construct: host or cells: Chinese Hamster Ovary (CHO) cells, membranes
Description: (§1) Functional potency of compounds of this invention can be measured by the following GTPS scintillation proximity assay (GTPS-SPA). Cells used in the study are Chinese Hamster Ovary (CHO) Cells. • Cell Line • CHO_D2 • CHO_D3 • Dopamine CHO D3 (Biocat no 1060) transduced with bacmam G0 G-protein (Biocat no 97886)
(§2) All steps are performed at 4° C. Cell membranes are prepared as follows. Cell pellets are resuspended in 10 volumes of 50 mM HEPES, 1 mM EDTA pH 7.4, using KOH. Cells are homogenised within a glass waring blender for 2 bursts of 15 secs in 200 mls of buffer (50 mM HEPES, 1 mM leupeptin, 25 μg/ml bacitracin, 1 mM EDTA, 1 mM PMSF, 2 μM Pepstatin A). (the latter 2 reagents added as fresh ×100 and ×500 stocks respectively in ethanol). The blender is plunged into ice for 5 mins after the first burst and 10-40 mins after the final burst to allow foam to dissipate. The material is then spun at 500 g for 20 mins and the supernatant spun for 36 mins at 48.000 g. The pellet is resuspended in the same buffer as above but without PMSF and Pepstatin A. The material is then forced through a 0.6 mm needle, made up to the required volume, (usually ×4 the volume of the original cell pellet), aliquoted and stored frozen at −80° C.
(§3) The final top concentration of test drug is 3 μM in the assay and 11 points serial dilution curves 1:4 in 100% DMSO are carried out using a Biomek FX. The test drug at 1% (0.5 ul) total assay volume (TAV) is added to a solid, white Greiner polypropylene 384-well assay plate. 50% TAV (25 μl) of precoupled (for 60 mins at RT) membranes, 5 μg/well, and Wheatgerm Agglutinin Polystyrene Scintillation Proximity Assay beads (RPNQ0260, Amersham), 0.25 mg/well, in 20 mM HEPES (pH 7.4, 100 mM NaCl, 10 mM MgCl2), 60 μg/mL saponin and 30 uM GDP is added. The third addition is a 20% TAV (10 ul) addition of either buffer, (agonist format) or EC80 final assay concentration of agonist, Quinelorane, prepared in assay buffer (antagonist format). The assay is started by the addition of 29% TAV (15 ul) of GTP[35S] 0.38 nM final (37 MBq/mL, 1160 Ci/mmol, Amersham). After all additions assay plates are spun down for 1 min at 1,000 rpm. The final assay cocktail ([…]) is incubated at room temperature to equilibrate for 3-6 hours before reading on a ViewLux™ (613/55 filter) luminescence imager 5 min/plate.
(§4) The effect of the test drug over the basal generates fpKi values of test drug are calculated from the IC50 generated by “antagonist format” experiment, using Cheng & Prusoff equation: fKi=IC50/1+([A]/EC50) where: [A] is the concentration of the agonist Quinelorane in the assay and EC50 is the Quinelorane EC50 value obtained in the same experiment. fpKi is defined as −logfKi. • pKi results are only estimated to be accurate to about 0.3-0.5.

T1 sequence (P35462 whole entry, species assumed): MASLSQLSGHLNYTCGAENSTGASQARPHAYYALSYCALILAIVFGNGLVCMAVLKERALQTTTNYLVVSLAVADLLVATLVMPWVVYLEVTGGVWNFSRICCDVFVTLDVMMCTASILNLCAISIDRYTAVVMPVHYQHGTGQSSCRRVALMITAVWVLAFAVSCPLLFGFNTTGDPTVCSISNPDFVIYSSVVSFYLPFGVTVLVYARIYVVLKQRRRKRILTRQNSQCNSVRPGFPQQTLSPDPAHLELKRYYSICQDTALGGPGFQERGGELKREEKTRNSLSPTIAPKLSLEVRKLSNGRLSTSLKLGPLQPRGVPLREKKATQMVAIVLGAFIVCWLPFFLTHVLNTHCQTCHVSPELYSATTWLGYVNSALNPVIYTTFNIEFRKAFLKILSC

Structure (SMILES)	Selectivity for D3 over D2 receptors [fold]
Cc1cccc(-c2cn(CCCN3C[C@@H]4C[C@]4(c4ccc(C(F)(F)F)cc4)C3)c(=O)[nH]c2=O)n1.Cl.Cl [Example E30, 5-(6-methyl-2-pyridinyl)-1-(3-{(1S,5R)-1-[4-(trifluoromethyl)phenyl]-3-azabicyclo[3.1.0]hex-3-yl}propyl)-2,4(1H,3H)-pyrimidinedione dihydrochloride]	199
Cl.Cl.O=c1[nH]c(=O)n(CCCN2C[C@@H]3C[C@]3(c3ccc(C(F)(F)F)cc3)C2)cc1-c1cccnc1 [Example E27, 5-(3-pyridinyl)-1-(3-{(1S,5R)-1-[4-(trifluoromethyl)phenyl]-3-azabicyclo[3.1.0]hex-3-yl}propyl)-2,4(1H,3H)-pyrimidinedione dihydrochloride]	251
Cl.Cl.O=c1[nH]c(=O)n(CCCN2C[C@@H]3C[C@]3(c3ccc(C(F)(F)F)cc3)C2)cc1-c1cc(Cl)cnc1F [Example E43, 5-(5-chloro-2-fluoro-3-pyridinyl)-1-(3-{(1S,5R)-1-[4-(trifluoromethyl)phenyl]-3-azabicyclo[3.1.0]hex-3-yl}propyl)-2,4(1H,3H)-pyrimidinedione dihydrochloride]	100
Cc1cc(-c2cn(CCCCN3C[C@@H]4C[C@]4(c4ccc(C(F)(F)F)cc4)C3)c(=O)[nH]c2=O)ccn1.Cl.Cl [Example E28, 5-(2-methyl-4-pyridinyl)-1-(4-{(1S,5R)-1-[4-(trifluoromethyl)phenyl]-3-azabicyclo[3.1.0]hex-3-yl}butyl)-2,4(1H,3H)-pyrimidinedione dihydrochloride]	316
Cl.O=c1[nH]c(=O)n(CCCN2C[C@@H]3C[C@]3(c3ccc(C(F)(F)F)cc3)C2)cc1-c1ccccc1 [Example E9, 5-phenyl-1-(3-{(1S,5R)-1-[4-(trifluoromethyl)phenyl]-3-azabicyclo-[3.1.0]hex-3-yl}propyl)-2,4(1H,3H)-pyrimidinedione hydrochloride]	199
Cl.O=c1[nH]c(=O)n(CCCN2C[C@@H]3C[C@]3(c3ccc(C(F)(F)F)cc3)C2)cc1-c1cccs1 [Example E8, 5-(2-thienyl)-1-(3-{(1S,5R)-1-[4-(trifluoromethyl)phenyl]-3-azabicyclo[3.1.0]hex-3-yl}propyl)-2,4(1H,3H)-pyrimidinedione hydrochloride]	100

target: T2, dopamine D2 receptor (Homo sapiens, UniProt P14416); experiment: GTPS scintillation proximity assay (GTPS-SPA), CHO_D2 membranes; format: biochemical; conditions: up to the highest concentration tested in the assay (3 μM)
T2 construct: expressed in transfected cells; host or cells: Chinese Hamster Ovary (CHO) cells, membranes
Description: as §1, §2, §3, §4

T2 sequence (P14416 whole entry): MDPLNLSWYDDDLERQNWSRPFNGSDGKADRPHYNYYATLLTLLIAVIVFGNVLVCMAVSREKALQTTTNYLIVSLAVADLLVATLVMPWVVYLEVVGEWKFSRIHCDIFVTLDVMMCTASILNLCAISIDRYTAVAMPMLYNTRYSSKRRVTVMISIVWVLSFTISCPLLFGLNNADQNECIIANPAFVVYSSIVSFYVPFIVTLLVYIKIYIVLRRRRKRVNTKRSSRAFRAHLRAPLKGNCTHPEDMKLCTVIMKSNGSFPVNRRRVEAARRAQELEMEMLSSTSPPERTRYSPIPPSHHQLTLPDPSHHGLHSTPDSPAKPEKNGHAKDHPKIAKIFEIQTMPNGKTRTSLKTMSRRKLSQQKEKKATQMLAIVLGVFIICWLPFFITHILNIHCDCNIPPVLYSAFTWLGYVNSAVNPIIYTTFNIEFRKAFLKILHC

Structure (SMILES)	activity in the D2 GTPS-SPA assay
Cc1cccc(-c2cn(CCCCN3C[C@@H]4C[C@]4(c4ccc(C(F)(F)F)cc4)C3)c(=O)[nH]c2=O)n1.Cl.Cl [Example E32, 5-(6-methyl-2-pyridinyl)-1-(4-{(1S,5R)-1-[4-(trifluoromethyl)phenyl]-3-azabicyclo[3.1.0]hex-3-yl}butyl)-2,4(1H,3H)-pyrimidinedione dihydrochloride]	no activity
Cl.Cl.O=c1[nH]c(=O)n(CCCN2C[C@@H]3C[C@]3(c3ccc(C(F)(F)F)cc3F)C2)cc1-c1cccnc1F [Example E48, 5-(2-fluoro-3-pyridinyl)-1-(3-{(1S,5R)-1-[2-fluoro-4-(trifluoromethyl)phenyl]-3-azabicyclo[3.1.0]hex-3-yl}propyl)-2,4(1H,3H)-pyrimidinedione dihydrochloride]	no activity
Cc1ccc(-c2cn(CCCN3C[C@@H]4C[C@]4(c4ccc(C(F)(F)F)cc4)C3)c(=O)[nH]c2=O)cn1.Cl.Cl [Example E40, 5-(6-methyl-3-pyridinyl)-1-(3-{(1S,5R)-1-[4-(trifluoromethyl)phenyl]-3-azabicyclo[3.1.0]hex-3-yl}propyl)-2,4(1H,3H)-pyrimidinedione dihydrochloride]	no activity
Cc1ncccc1-c1cn(CCCN2C[C@@H]3C[C@]3(c3ccc(C(F)(F)F)cc3)C2)c(=O)[nH]c1=O.Cl.Cl [Example E19, 5-(2-methyl-3-pyridinyl)-1-(3-{(1S,5R)-1-[4-(trifluoromethyl)phenyl]-3-azabicyclo[3.1.0]hex-3-yl}propyl)-2,4(1H,3H)-pyrimidinedione dihydrochloride]	no activity
Cl.O=c1ccn(CCCCN2C[C@@H]3C[C@]3(c3ccc(C(F)(F)F)cc3)C2)c(=O)[nH]1 [Example E5, 1-(4-{(1S,5R)-1-[4-(trifluoromethyl)phenyl]-3-azabicyclo[3.1.0]hex-3-yl}butyl)-2,4(1H,3H)-pyrimidinedione hydrochloride]	no activity
Cc1cc(-c2cn(CCCN3C[C@@H]4C[C@]4(c4ccc(C(F)(F)F)cc4)C3)c(=O)[nH]c2=O)ccn1.Cl [Example E23, 5-(2-methyl-4-pyridinyl)-1-(3-{(1S,5R)-1-[4-(trifluoromethyl)phenyl]-3-azabicyclo[3.1.0]hex-3-yl}propyl)-2,4(1H,3H)-pyrimidinedione hydrochloride]	no activity
Cl.Cl.O=c1[nH]c(=O)n(CCCN2C[C@@H]3C[C@]3(c3ccc(C(F)(F)F)cc3)C2)cc1-c1ccncc1 [Example E24, 5-(4-pyridinyl)-1-(3-{(1S,5R)-1-[4-(trifluoromethyl)phenyl]-3-azabicyclo[3.1.0]hex-3-yl}propyl)-2,4(1H,3H)-pyrimidinedione dihydrocholoride]	no activity
Cc1nc(-c2cn(CCCN3C[C@@H]4C[C@]4(c4ccc(C(F)(F)F)cc4)C3)c(=O)[nH]c2=O)ccc1F.Cl.Cl [Example E39, 5-(5-fluoro-6-methyl-2-pyridinyl)-1-(3-{(1S,5R)-1-[4-(trifluoromethyl)phenyl]-3-azabicyclo[3.1.0]hex-3-yl}propyl)-2,4(1H,3H)-pyrimidinedione dihydrochloride]	no activity
Cc1nc(F)ccc1-c1cn(CCCN2C[C@@H]3C[C@]3(c3ccc(C(F)(F)F)cc3)C2)c(=O)[nH]c1=O.Cl.Cl [Example E36, 5-(6-fluoro-2-methyl-3-pyridinyl)-1-(3-{(1S,5R)-1-[4-(trifluoromethyl)phenyl]-3-azabicyclo[3.1.0]hex-3-yl}propyl)-2,4(1H,3H)-pyrimidinedione dihydrochloride]	no activity
Cl.Cl.O=c1[nH]c(=O)n(CCCN2C[C@@H]3C[C@]3(c3ccc(C(F)(F)F)cc3)C2)cc1-c1ccncc1F [Example E44, 5-(3-fluoro-4-pyridinyl)-1-(3-{(1S,5R)-1-[4-(trifluoromethyl)phenyl]-3-azabicyclo[3.1.0]hex-3-yl}propyl)-2,4(1H,3H)-pyrimidinedione dihydrochloride]	no activity
Cl.Cl.O=c1[nH]c(=O)n(CCCN2C[C@@H]3C[C@]3(c3ccc(C(F)(F)F)cc3)C2)cc1-c1ccc(F)nc1 [Example E20, 5-(6-fluoro-3-pyridinyl)-1-(3-{(1S,5R)-1-[4-(trifluoromethyl)phenyl]-3-azabicyclo[3.1.0]hex-3-yl}propyl)-2,4(1H,3H)-pyrimidinedione dihydrochloride]	no activity
Cc1ccc(-c2cn(CCCN3C[C@@H]4C[C@]4(c4ccc(C(F)(F)F)cc4)C3)c(=O)[nH]c2=O)c(Cl)n1.Cl.Cl [Example E63, 5-(2-chloro-6-methyl-3-pyridinyl)-1-(3-{(1S,5R)-1-[4-(trifluoromethyl)phenyl]-3-azabicyclo[3.1.0]hex-3-yl}propyl)-2,4(1H,3H)-pyrimidinedione dihydrochloride]	no activity
Cc1ncccc1-c1cn(CCCCN2C[C@@H]3C[C@]3(c3ccc(C(F)(F)F)cc3)C2)c(=O)[nH]c1=O.Cl.Cl [Example E29, 5-(2-methyl-3-pyridinyl)-1-(4-{(1S,5R)-1-[4-(trifluoromethyl)phenyl]-3-azabicyclo[3.1.0]hex-3-yl}butyl)-2,4(1H,3H)-pyrimidinedione dihydrochloride]	no activity
